According to article PMC5892879, “Structures of the Mycobacterium tuberculosis GlpX protein (class II fructose-1,6-bisphosphatase): implications for the active oligomeric state, catalytic mechanism and citrate inhibition” (Acta Crystallographica. Section D, Structural Biology, 2018):
Values joined by “and” are separate entries in the source; they are usually repeats but may differ in a detail not shown here. Equal values may be shown once. “Also recorded” adds a separate entry of the source. Read-outs that look alike come from different tables or passages of the source.

Tests used:
[1] = molecular target: T1, MtFBPaseII (Mycobacterium tuberculosis, UniProt P9WN21); test: FBPase activity of wild-type MtFBPaseII, malachite green assay; assay type: biochemical; conditions: for IC50: wild-type MtFBPaseII, malachite green assay, fit of triplicate data, standard error reported; for Effect on MtFBPaseII activity (in words): TCA cycle intermediates tested for inhibitory activity
T1 construct: His-tag (N); made in house
T1 sequence (P9WN21 whole entry): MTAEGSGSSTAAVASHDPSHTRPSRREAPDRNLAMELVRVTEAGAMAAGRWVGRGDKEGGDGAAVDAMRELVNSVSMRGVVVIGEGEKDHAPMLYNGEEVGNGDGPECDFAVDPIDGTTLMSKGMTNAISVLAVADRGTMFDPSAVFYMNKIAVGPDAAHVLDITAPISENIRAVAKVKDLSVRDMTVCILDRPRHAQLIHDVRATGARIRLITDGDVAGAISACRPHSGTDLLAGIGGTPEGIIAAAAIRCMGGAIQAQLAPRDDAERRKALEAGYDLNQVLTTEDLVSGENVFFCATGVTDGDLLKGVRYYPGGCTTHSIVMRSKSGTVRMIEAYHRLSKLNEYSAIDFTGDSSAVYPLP
Protocol: The FBPase activity of wild-type MtFBPaseII was measured using the malachite green assay (Bondoc et al., 2017[▸]) in the presence of α-ketoglutarate, citrate, isocitrate, malate, malonate and oxaloacetate. Compounds were tested in triplicate at concentrations of 5000, 3000, 2500, 1300, 630, 310 and 160 µM with positive (no compound) and negative (no enzyme) controls in parallel. Fitting was performed with GraphPad Prism (v.7.0b; GraphPad Software, La Jolla, California, USA). The coupled assay (Bondoc et al., 2017[▸]) was used to obtain kinetic data, which were fitted to a nonlinear Michaelis–Menten equation.

[2] = tested on: EcFBPaseI; parameters: method as in Hines et al., 2007; conditions: in the presence of 5 µM AMP, ref Hines et al., 2007; cited from earlier work
[3] = IC50 values of compounds against MtFBPaseII
[4] = read-out: IC50 values of compounds against MtFBPaseII

## O=C(O)CC(O)(CC(=O)O)C(=O)O [Citrate]
[1]; [3]
  IC50: ~2 mM and 2 mM
[2]
  Concentration range resulting in activation of the enzyme: 0.5 to 5 mM

## O=C(O)CC(C(=O)O)C(O)C(=O)O (centres unmarked) [Isocitrate]
[1]
  Effect on MtFBPaseII activity (in words): no effect
[1]; up to a concentration of 5 mM
  Inhibition of MtFBPaseII: did not inhibit; also recorded: did not have any measureable activity

## O=C(O)CC(O)C(=O)O (centres unmarked) [Malate, malate]
[1]; [3]
  IC50: 3.3 ± 0.1 mM

## O=C(O)CC(=O)O [Malonate, malonate]
[1]; MtFBPaseII, Fig. 4
  Concentration with a weak effect on the activity of the enzyme: 3 to 4 mM
[1]; [4]
  IC50: 3.2 ± 0.1 mM

## O=C(O)CC(=O)C(=O)O [Oxaloacetate]
[1]; [3]
  IC50: 6.4 ± 0.5 mM
[1]
  Effect on MtFBPaseII activity (in words): limited effect

## C=C(OP(=O)(O)O)C(=O)O [PEP, phosphoenolpyruvate]
[2]
  Concentration range resulting in activation of the enzyme: 0.5 to 5 mM

## O=C(O)CCC(=O)C(=O)O [α-Ketoglutarate, α-ketoglutarate]
[1]; [4]
  IC50: 3.1 ± 0.2 mM
